Legend:
[1] = 11 months of storage at room temperature (Example 1: closed glass vial)
Experimental: Powder X-Ray Diffraction:
The measurements are carried out with a Bruker D8 Advance powder X-ray diffractometer using Cu Kα radiation in the Bragg-Brentano reflection geometry. Generally, the 2θ values are accurate within an error of ±0.1-0.2°. The relative peak intensities can vary considerably for different samples of the same crystalline form because of different preferred orientations of the crystals. The samples are prepared without any special treatment other than the application of slight pressure to get a flat surface. Generally, silicon single crystal sample holders of 0.1 mm, 0.5 mm or 1.0 mm depth are used. The tube voltage and current are 40 kV and 40 mA, respectively. The X-ray diffractometer is equipped with a LynxEye detector. A variable divergence slight is used with a 3° window. The step size is 0.02° 2θ with a step time of 37 seconds. The samples are rotated at 0.5 rps during the measurement.

[2] = heating rate 10° C. per minute, dried sample
Experimental: Differential scanning calorimetry: DSC is carried out with a TA Instruments DSC Q2000 using hermetically sealed gold sample pans. The heating rate is 10° C. per minute. Samples are dried under nitrogen before sample pans are closed under nitrogen.

[3] = after two hours equilibration at 25° C.; resulting pH value 4.6
Experimental: Solubility Determinations:
Solubility determinations are carried out in pure water at 25±2° C. Suspensions with about 10 mg salt in 0.5 mL water are prepared and equilibrated for two hours before the solution phase is filtered off and tested by HPLC.
HPLC is carried out on an Agilent 1100 HPLC chromatograph equipped with a UV-vis detection unit. […] The column type used is a Waters XTerra MS C18, 250×4.6 mm, 5 μm (FK-CC14). The method as referenced above is an isocratic method using an aqueous ammonium acetate/acetic acid and methanol with a ratio of 55/45. The applied flow rate is 1.0 mL per minute, the injection volume is 20 microliter and the detection wavelength is 321 nm.

SMILES | crystalline material by powder X-ray diffraction after storage [1] | glass transition (DSC step) [2] | aqueous solubility [3] [µg/mL]
Cc1nc(Nc2ncc(C(=O)Nc3c(C)cccc3Cl)s2)cc(N2CCN(CCO)CC2)n1.O=C1NS(=O)(=O)c2ccccc21 [Example 1, Dasatinib saccharinate] | no crystalline material was present | ~130 °C | 1330
Cc1nc(Nc2ncc(C(=O)Nc3c(C)cccc3Cl)s2)cc(N2CCN(CCO)CC2)n1.O=C(O)CCCC(=O)O [Example 2, Dasatinib glutarate] | no crystalline material is present | – | –
Cc1nc(Nc2ncc(C(=O)Nc3c(C)cccc3Cl)s2)cc(N2CCN(CCO)CC2)n1.O=C(O)c1cccnc1 [Example 3, Dasatinib nicotinate] | no crystalline material is present | – | –
Cc1nc(Nc2ncc(C(=O)Nc3c(C)cccc3Cl)s2)cc(N2CCN(CCO)CC2)n1.O=C1NS(=O)(=O)c2ccccc21 [Example 4, Dasatinib saccharinate] | – | about 113 °C | –

Reference: US9884857B2, “Salts of dasatinib in amorphous form” (BASF SE, priority 2013, dated 2018)
